These results are taken from US20210008206A1, “ADENOSINE PATHWAY INHIBITORS FOR CANCER TREATMENT” (Corvus Pharmaceuticals, Inc., priority 2017, published 2021).

SMILES strings stand for the structures.

The subject of test [1] is patients with advanced cancers. Briefly: Phase 1/1b clinical trial, tumor response by baseline biomarker level. The note with it: for Objective response rate / Disease control rate: 100 mg orally twice a day, 28 days. The class given is in vivo, human. The method, then:
FIG. 3 is a graph showing tumor response to treatment with the compound of Formula (III) in patients expressing low levels of adenosine A2A receptors and patients expressing high levels of adenosine A2A receptors. RNA was extracted from pre-treatment tumor samples, and Nanostring was performed to arrive at the values described herein. The disease control rate was 0 of 11 patients who expressed low levels of adenosine A2A receptors, and was 9 of 26 patients who expressed high levels of adenosine A2A receptors. The objective response rate was 0 of II patients who expressed low levels of adenosine A2A receptors, and 1 of 26 patients who expressed high levels of adenosine A2A receptors.
FIG. 4 is a graph showing tumor response to treatment with the compound of Formula (III) in patients expressing low levels of CD73 and patients expressing high levels of CD73. RNA was extracted from pre-treatment tumor samples, and Nanostring was performed to arrive at the values described herein. The disease control rate was 1 of 9 patients who expressed low levels of CD73, and was 8 of 28 patients who expressed high levels of CD73. The objective response rate was 0 of 9 patients who expressed low levels of CD73, and was 1 of 28 patients who expressed high levels of CD73.
FIG. 5 is a graph showing tumor response to treatment with the compound of Formula (III) in patients expressing low levels of adenosine A2A receptors and/or CD73 and patients expressing high levels of both adenosine A2A receptors and CD73. RNA was extracted from pre-treatment tumor samples, and Nanostring was performed to arrive at the values described herein. The disease control rate was 8 of 21 patients who expressed low levels of adenosine A2A receptors and/or CD73, and was 1 of 16 patients who expressed high levels of both adenosine A2A receptors and CD73. The objective response rate was 1 of 21 patients who expressed low levels of adenosine A2A receptors and/or CD73, and was 0 of 16 patients who expressed high levels of both adenosine A2A receptors and CD73.
FIG. 6 is a graph showing tumor response to treatment with the compound of Formula (III) in patients expressing low levels of PD-L1 mRNA and patients expressing high levels of PD-L1 mRNA. RNA was extracted from pre-treatment tumor samples, and Nanostring was performed to arrive at the values described herein. The disease control rate was 3 of 17 patients who expressed low levels of PD-L1 mRNA, and was 6 of 20 patients who expressed high levels of PD-L1 mRNA. The objective response rate was 0 of 17 patients who expressed low levels of PD-L1 mRNA, and was 1 of 20 patients who expressed high levels of PD-L1 mRNA.
FIG. 7 is a graph showing tumor response to treatment with the compound of Formula (III) in patients having low levels of PD-L1 and patients having high levels of PD-L1. PD-L1 staining on immune cells was determined by immunohistochemistry using the SP142 antibody that detects PD-L1. The disease control rate was 7 of 24 patients who expressed low levels of PD-L1, and was 2 of 13 patients who expressed high levels of PD-L1. The objective response rate was 0 of 24 patients who expressed low levels of PD-L1, and was 1 of 13 patients who expressed high levels of PD-L1.
“Objective response rate” refers to the patients that had greater than 30% reduction in the sum of the longest dimensions of their assessed target tumor lesions.
The compound of Formula (III) is being investigated in an ongoing Phase 1/1b clinical trial in patients with advanced cancers (NCT02655822 at www.clinicaltrials.gov). Biomarker investigations were conducted to explore immune modulation in serial tumor biopsies and peripheral blood as well associations between adenosine pathway genes and clinical activity. […]

For the next test, the system named is tumor biopsies. Briefly: On-treatment vs pre-treatment tumor biopsies, IHC and Nanostring gene expression. As to conditions: on-treatment biopsies compared to pre-treatment biopsies. The class given is in vivo, human. An excerpt: FIGS. 8A-8H show log2-fold changes in immunohistochemistry and gene expression (i.e., mRNA) by Nanostring on on-treatment biopsies compared to pre-treatment biopsies and identifies pharmacodynamics changes that are observed in CD73-high tumors treated with a compound of Formula (III). FIG. 8A compares CD8 infiltration, measured by IHC, in patients expressing low levels and high levels of CD73 (where the p=0.005) after treatment with the compound of Formula (III). FIG. 8B compares PD-L1 inflammation infiltration, measured by IHC, in patients expressing low levels and high levels of CD73 (p=0.15) after treatment with the compound of Formula (III). FIG. 8C compares CXCL9 (chemokine C-X-C motif ligand 9) gene expression in patients expressing low levels and high levels of CD73 (p=0.02) after treatment with the compound of Formula (III). […]
The patients were orally administered the compound of Formula (III) at a dose of 100 mg, twice a day, for twenty-eight days. Tumor biopsies and blood samples were analyzed from patients with renal cell carcinoma, non-small cell lung cancer, triple negative breast cancer, microsatellite instable colorectal cancer treated with the compound of Formula (III). Paired tumor biopsies were analyzed: gene expression profiles (Nanostring), CD8, PD-L1 and CD73 (IHC). […]

In the next test the test system is T cell function. Briefly: Suppression of T cell function by adenosine. The class given is cell-based.
Setting [2] is: patients expressing high levels of both adenosine A2A receptors and CD73.
Setting [3] is: patients expressing low levels of adenosine A2A receptors and/or CD73.

In the case of `Cc1ccc(-c2nc(N)nc3c2nnn3Cc2cccc(COC3CCOC3)n2)o1` (centres unmarked) [compound of Formula (III)], the Objective response rate in test [1] (patients expressing high levels of CD73) is reported as 1 of 28; in test [1] (patients expressing high levels of PD-L1 mRNA), 1 of 20; in test [1] (patients expressing high levels of adenosine A2A receptors) it was 1 of 26; in test [1] (setting [2]) it was 0 of 16; in test [1] (patients expressing low levels of CD73), 0 of 9; in test [1] (patients expressing low levels of PD-L1 mRNA), 0 of 17. The Objective response rate in test [1] (setting [3]) is listed as 1 of 21; in test [1] (patients with high levels of PD-L1 (IHC, SP142)), 1 of 13; in test [1] (patients with low levels of PD-L1 (IHC, SP142)), 0 of 24. Moreover, the Disease control rate in test [1] (patients expressing high levels of CD73 (Nanostring)) was 8 of 28; in test [1] (patients expressing high levels of PD-L1 mRNA (Nanostring)), 6 of 20; in test [1] (patients expressing high levels of adenosine A2A receptors (Nanostring, pre-treatment tumor)), 9 of 26; in test [1] (setting [2]), 1 of 16; in test [1] (patients expressing low levels of CD73 (Nanostring)), 1 of 9; in test [1] (patients expressing low levels of PD-L1 mRNA (Nanostring)), 3 of 17. Moreover, the Disease control rate in test [1] (patients expressing low levels of adenosine A2A receptors (Nanostring, pre-treatment tumor)) is given as 0 of 11; in test [1] (setting [3]), 8 of 21; in test [1] (patients with high levels of PD-L1 (IHC on immune cells, SP142 antibody, ≥1%)), 2 of 13; in test [1] (patients with low levels of PD-L1 (IHC on immune cells, SP142 antibody, <1%)), 7 of 24. In test [1] (patients with elevated expression of adenosine A2A receptor genes, CD73 and PD-L1 in baseline tumor samples compared to patients having low expression), the Tumor regression entry is given as “significant tumor regression”. Further, in “Preclinical models”, the “Activity in preclinical models” value was “active in multiple preclinical models”. In the test on tumor biopsies, the “Pharmacodynamics changes in IHC and gene expression” value is “observed only in CD73-high tumors”. In the test on T cell function, the “Effect on suppression of T cell function by adenosine” value is given as “inhibits suppression of T cell function by adenosine”.
